Measurements reported in ChEMBL document CHEMBL3885881, “DrugMatrix”.

Organism: Rattus norvegicus
Test: DrugMatrix - Regimen: Daily Repeat
Format: toxicity, organism-based, Sprague-Dawley
Set-up: regimen Daily Repeat, gender Male, age 6-8 weeks
Conditions: in vivo, po, route oral GAVAGE, […]; for ABSOLUTE BASOPHIL / ABSOLUTE EOSINOPHIL / ABSOLUTE LYMPHOCYTE / ABSOLUTE MONOCYTE / ABSOLUTE SEGMENTED NEUTROPHIL / BASOPHIL / EOSINOPHIL / ERYTHROCYTE COUNT / HEMATOCRIT / HEMOGLOBIN / LEUKOCYTE COUNT / LYMPHOCYTE / MEAN CORPUSCULAR HEMOGLOBIN / MEAN CORPUSCULAR HEMOGLOBIN CONCENTRATION / MEAN CORPUSCULAR VOLUME / MONOCYTE / NEUTROPHIL / NUCLEATED RED BLOOD CELLS / PLATELET COUNT: tissue Blood; for ALANINE AMINOTRANSFERASE / ALBUMIN / ALKALINE PHOSPHATASE / ASPARTATE AMINOTRANSFERASE / BLOOD UREA NITROGEN / CARBON DIOXIDE / CHLORIDE / CHOLESTEROL / CREATINE PHOSPHOKINASE / CREATININE / GLUCOSE / LACTATE DEHYDROGENASE / LIPASE / PHOSPHORUS / POTASSIUM / SODIUM / TOTAL BILIRUBIN / TOTAL PROTEIN / URIC ACID: tissue Plasma
[1] = 5 mg/kg, 120 h, dose level Low, time 5 day
[2] = 13 mg/kg, 72 h, dose level High, time 3 day
[3] = 13 mg/kg, 120 h, dose level High, time 5 day

## O=c1oc2ccccc2c(O)c1Cc1c(O)c2ccccc2oc1=O [DICUMAROL]
[1]
  ABSOLUTE BASOPHIL: 0 CELLS/uL
  ABSOLUTE EOSINOPHIL: 23.33 CELLS/uL
  ABSOLUTE LYMPHOCYTE: 6534.33 CELLS/uL
  ABSOLUTE MONOCYTE: 0 CELLS/uL
  ABSOLUTE SEGMENTED NEUTROPHIL: 809 CELLS/uL
  BASOPHIL: 0%
  EOSINOPHIL: 0.33%
  ERYTHROCYTE COUNT: 5.38 x10E6/uL
  HEMATOCRIT: 33.9%
  HEMOGLOBIN: 13.03 G/DL
  LEUKOCYTE COUNT: 7.37 x10E3/uL
  LYMPHOCYTE: 88.67%
  MEAN CORPUSCULAR HEMOGLOBIN: 24.27 pg
  MEAN CORPUSCULAR HEMOGLOBIN CONCENTRATION: 38.47 G/DL
  MEAN CORPUSCULAR VOLUME: 63 fL
  MONOCYTE: 0%
  NEUTROPHIL: 11%
  NUCLEATED RED BLOOD CELLS: 0 /100WBC
  PLATELET COUNT: 1062 x10E3/uL
  ALANINE AMINOTRANSFERASE: 70.33 u/L
  ALBUMIN: 4.17 G/DL
  ALKALINE PHOSPHATASE: 492.33 u/L
  ASPARTATE AMINOTRANSFERASE: 90.67 u/L
  BLOOD UREA NITROGEN: 13.67 mg/dL
  CARBON DIOXIDE: 31.67 mmol/L
  CHLORIDE: 100 MEQ/L
  CHOLESTEROL: 66.67 mg/dL
  CREATINE PHOSPHOKINASE: 491.67 u/L
  CREATININE: 0.15 mg/dL
  GLUCOSE: 160.33 mg/dL
  LACTATE DEHYDROGENASE: 134.33 u/L
  LIPASE: 9.33 u/L
  PHOSPHORUS: 9.47 mg/dL
  POTASSIUM: 5.06 MEQ/L
  SODIUM: 142.1 MEQ/L
  TOTAL BILIRUBIN: 0.17 mg/dL
  TOTAL PROTEIN: 6.07 G/DL
  URIC ACID: 0.43 mg/dL
[2]
  ABSOLUTE BASOPHIL: 0 CELLS/uL
  ABSOLUTE EOSINOPHIL: 43.33 CELLS/uL
  ABSOLUTE LYMPHOCYTE: 9740.67 CELLS/uL
  ABSOLUTE MONOCYTE: 39.67 CELLS/uL
  ABSOLUTE SEGMENTED NEUTROPHIL: 443 CELLS/uL
  BASOPHIL: 0%
  EOSINOPHIL: 0.33%
  ERYTHROCYTE COUNT: 5.24 x10E6/uL
  HEMATOCRIT: 32.97%
  HEMOGLOBIN: 12.9 G/DL
  LEUKOCYTE COUNT: 10.27 x10E3/uL
  LYMPHOCYTE: 95%
  MEAN CORPUSCULAR HEMOGLOBIN: 24.7 pg
  MEAN CORPUSCULAR HEMOGLOBIN CONCENTRATION: 39.13 G/DL
  MEAN CORPUSCULAR VOLUME: 63.17 fL
  MONOCYTE: 0.33%
  NEUTROPHIL: 4.33%
  NUCLEATED RED BLOOD CELLS: 0 /100WBC
  PLATELET COUNT: 923.67 x10E3/uL
  ALANINE AMINOTRANSFERASE: 65 u/L
  ALBUMIN: 3.83 G/DL
  ALKALINE PHOSPHATASE: 374.33 u/L
  ASPARTATE AMINOTRANSFERASE: 87.33 u/L
  BLOOD UREA NITROGEN: 11 mg/dL
  CARBON DIOXIDE: 35.33 mmol/L
  CHLORIDE: 98 MEQ/L
  CHOLESTEROL: 72 mg/dL
  CREATINE PHOSPHOKINASE: 494.33 u/L
  CREATININE: 0.14 mg/dL
  GLUCOSE: 143.67 mg/dL
  LACTATE DEHYDROGENASE: 159.67 u/L
  LIPASE: 9.33 u/L
  PHOSPHORUS: 11.1 mg/dL
  POTASSIUM: 6.17 MEQ/L
  SODIUM: 142.53 MEQ/L
  TOTAL BILIRUBIN: 0.17 mg/dL
  TOTAL PROTEIN: 5.83 G/DL
  URIC ACID: 0.5 mg/dL
[3]
  ABSOLUTE BASOPHIL: 0 CELLS/uL
  ABSOLUTE EOSINOPHIL: 0 CELLS/uL
  ABSOLUTE LYMPHOCYTE: 5152 CELLS/uL
  ABSOLUTE MONOCYTE: 45 CELLS/uL
  ABSOLUTE SEGMENTED NEUTROPHIL: 403 CELLS/uL
  BASOPHIL: 0%
  EOSINOPHIL: 0%
  ERYTHROCYTE COUNT: 5.48 x10E6/uL
  HEMATOCRIT: 33.3%
  HEMOGLOBIN: 12.65 G/DL
  LEUKOCYTE COUNT: 5.6 x10E3/uL
  LYMPHOCYTE: 92%
  MEAN CORPUSCULAR HEMOGLOBIN: 23.1 pg
  MEAN CORPUSCULAR HEMOGLOBIN CONCENTRATION: 38 G/DL
  MEAN CORPUSCULAR VOLUME: 60.75 fL
  MONOCYTE: 1%
  NEUTROPHIL: 7%
  NUCLEATED RED BLOOD CELLS: 1 /100WBC
  PLATELET COUNT: 1032 x10E3/uL
  ALANINE AMINOTRANSFERASE: 67.5 u/L
  ALBUMIN: 3.85 G/DL
  ALKALINE PHOSPHATASE: 329.5 u/L
  ASPARTATE AMINOTRANSFERASE: 96 u/L
  BLOOD UREA NITROGEN: 13 mg/dL
  CARBON DIOXIDE: 32.5 mmol/L
  CHLORIDE: 100 MEQ/L
  CHOLESTEROL: 64 mg/dL
  CREATINE PHOSPHOKINASE: 628 u/L
  CREATININE: 0.18 mg/dL
  GLUCOSE: 150.5 mg/dL
  LACTATE DEHYDROGENASE: 133 u/L
  LIPASE: 11 u/L
  PHOSPHORUS: 9.75 mg/dL
  POTASSIUM: 5.09 MEQ/L
  SODIUM: 145.4 MEQ/L
  TOTAL BILIRUBIN: 0.15 mg/dL
  TOTAL PROTEIN: 6 G/DL
  URIC ACID: 0.45 mg/dL
